Common to all, as to test: AK assay 384-well format, Prestwick library screening
One assay concerns E. cloacae. It is filed as cell-based, Enterobacter cloacae. To be noted: 50 μM final drug concentration; for fold induction at 50 µM: Enterobacter cloacae, 3 h.
The next assay relates to E. coli. The format is cell-based, Escherichia coli. As to conditions: 50 μM final drug concentration; for fold induction at 50 µM: Escherichia coli, 3 h.
Assay [1] deals with S. aureus strain USA300-0114. The format is cell-based, Staphylococcus aureus. As to conditions: 50 μM final drug concentration; for fold induction at 50 µM: Staphylococcus aureus, USA300, 3 h.
The subject of assay [2] is A. baumannii strain 98-37-09. The format is cell-based, Acinetobacter baumannii. As to conditions: 50 μM final drug concentration; for fold induction at 50 µM: Acinetobacter baumannii, 983709, 3 h.
A further assay relates to K. pneumoniae. The format is cell-based, Klebsiella pneumoniae. To be noted: 50 μM final drug concentration; for fold induction at 50 µM: Klebsiella pneumoniae, 3 h.
Another assay deals with P. aeruginosa. The format is cell-based, Pseudomonas aeruginosa. To be noted: 50 μM final drug concentration; for fold induction at 50 µM: Pseudomonas aeruginosa, 3 h.
Another assay has as its system E. faecium. The format is cell-based, Enterococcus faecium. To be noted: 50 μM final drug concentration; for fold induction at 50 µM: Enterococcus faecium, 3 h.
[3] abbreviates: planktonic, cutoff for positive-scoring molecules 3-fold increase.
[4] abbreviates: cutoff for positive-scoring molecules 3-fold increase, read-out: AK-based Prestwick Library Screening Results, E. cloacae (fold increase in extracellular AK activity).
Setting [5] is: cutoff for positive-scoring molecules 3-fold increase, read-out: AK-based Prestwick Library Screening Results, S. aureus (fold increase in extracellular AK activity).
Where [6] appears, read: cutoff for positive-scoring molecules 3-fold increase, read-out: AK-based Prestwick Library Screening Results, A. baumannii (fold increase in extracellular AK activity).
The mark [7] stands for this setting: cutoff for positive-scoring molecules 3-fold increase, read-out: AK-based Prestwick Library Screening Results, K. pneumoniae (fold increase in extracellular AK activity).
The mark [8] stands for this setting: cutoff for positive-scoring molecules 3-fold increase, read-out: AK-based Prestwick Library Screening Results, P. aeruginosa (fold increase in extracellular AK activity).
Setting [9] is: cutoff for positive-scoring molecules 3-fold increase, read-out: AK-based Prestwick Library Screening Results, E. faecium (fold increase in extracellular AK activity).
The mark [10] stands for this setting: cutoff for positive-scoring molecules 3-fold increase, read-out: AK-based Prestwick Library Screening Results, E. coli (fold increase in extracellular AK activity).

From US10004701B2, “Methods and compositions for treating infection” (UNIVERSITY OF ROCHESTER, priority 2012, dated 2018) come the findings set out here.

Where a name gives a salt, the structure may show the parent alone. Read-outs that look alike come from different tables or passages of the source.

On to Trimipramine maleate salt, for which the “AK-based Prestwick Library Screening Results, E. cloacae (fold increase in extracellular AK activity)” value in the assay on E. cloacae (setting [3]) worked out at 0.6. Moreover, in the assay with E. coli (setting [3]), the “AK-based Prestwick Library Screening Results, E. coli (fold increase in extracellular AK activity)” value is 0.6. Further, the “AK-based Prestwick Library Screening Results, S. aureus (fold increase in extracellular AK activity)” value in assay [1] (setting [3]) is 0.5. Further, the “AK-based Prestwick Library Screening Results, A. baumannii (fold increase in extracellular AK activity)” value in assay [2] (setting [3]) came out at 0.6. Moreover, the “AK-based Prestwick Library Screening Results, K. pneumoniae (fold increase in extracellular AK activity)” value with K. pneumoniae (setting [3]) is given as 0.6. For the same molecule, in the assay with P. aeruginosa (setting [3]), the “AK-based Prestwick Library Screening Results, P. aeruginosa (fold increase in extracellular AK activity)” value was found to be 0.6. Besides, the “AK-based Prestwick Library Screening Results, E. faecium (fold increase in extracellular AK activity)” value with E. faecium (setting [3]) was 0.9.

For the molecule `S=C(NC1CCCCC1)N1CCC(c2cnc[nH]2)CC1` [Thioperamide maleate], the fold induction at 50 µM with E. cloacae (setting [4]) came out at 1.6; in the assay on E. coli ([…], read-out: AK-based Prestwick Library Screening Results, E. coli (fold increase in extracellular AK activity)) it was 1.2; in assay [1] (setting [5]) it was 1.1; in assay [2] (setting [6]), 1; in the assay with K. pneumoniae (setting [7]), 1; in the assay with P. aeruginosa (setting [8]) it was 1.3. Moreover, in the assay on E. faecium (setting [9]), the fold induction at 50 µM was determined as 1.

For the molecule `CC(=O)OCC1=C(C(=O)O)N2C(=O)[C@@H](NC(=O)Cc3cccs3)[C@H]2SC1` [Cephalothin sodium salt], the fold induction at 50 µM in the assay on E. cloacae (setting [4]) was found to be 2; with E. coli (setting [10]), 11.8; in assay [1] (setting [5]), 5.3; in assay [2] (setting [6]) it was 1.1; with K. pneumoniae (setting [7]), 3.2; in the assay with P. aeruginosa (setting [8]) it was 1.1. Also, the fold induction at 50 µM in the assay with E. faecium (setting [9]) was determined as 1.

Regarding `C[C@@H]1O[C@@H](O[C@@H]2C=C3CC[C@@H]4[C@H](CC[C@]5(C)[C@@H](c6ccc(=O)oc6)CC[C@]45O)[C@@]3(C)CC2)[C@H](O)[C@H](O)[C@H]1O` [Proscillaridin A], the “AK-based Prestwick library screening result, E. cloacae (fold increase in extracellular AK activity)” value in the assay with E. cloacae (planktonic E. cloacae, […]) is 0.9. In addition, the “AK-based Prestwick library screening result, E. coli (fold increase in extracellular AK activity)” value in the assay with E. coli (planktonic E. coli, […]) was 0.9. In addition, the “AK-based Prestwick library screening result, S. aureus (fold increase in extracellular AK activity)” value in assay [1] (planktonic S. aureus, […]) worked out at 0.6. Besides, in assay [2] (planktonic A. baumannii, […]), the “AK-based Prestwick library screening result, A. baumannii (fold increase in extracellular AK activity)” value is 0.8. Moreover, in the assay with K. pneumoniae (planktonic K. pneumoniae, […]), the “AK-based Prestwick library screening result, K. pneumoniae (fold increase in extracellular AK activity)” value was found to be 0.7. In the assay with P. aeruginosa (planktonic P. aeruginosa, […]), the “AK-based Prestwick library screening result, P. aeruginosa (fold increase in extracellular AK activity)” value is 0.9. In addition, the “AK-based Prestwick library screening result, E. faecium (fold increase in extracellular AK activity)” value in the assay on E. faecium (planktonic E. faecium, […]) is 0.8.

For the molecule `COc1ccc2c3c1O[C@H]1C[C@@H](O)C=C[C@@]31CCN(C)C2` [Galanthamine hydrobromide], the fold induction at 50 µM in the assay with E. cloacae (planktonic E. cloacae, […], read-out: AK-based Prestwick Library Screening Results, E. cloacae (increase in extracellular AK activity)) amounted to 1; in the assay with E. coli (planktonic E. coli, […], read-out: AK-based Prestwick Library Screening Results, E. coli (increase in extracellular AK activity)), 0.9; in assay [1] (planktonic S. aureus, […], read-out: AK-based Prestwick Library Screening Results, S. aureus (increase in extracellular AK activity)) it was 0.8; in assay [2] (planktonic A. baumannii, […], read-out: AK-based Prestwick Library Screening Results, A. baumannii (increase in extracellular AK activity)), 0.8; with K. pneumoniae (planktonic K. pneumoniae, […], read-out: AK-based Prestwick Library Screening Results, K. pneumoniae (increase in extracellular AK activity)) it was 0.8; in the assay with P. aeruginosa (planktonic P. aeruginosa, […], read-out: AK-based Prestwick Library Screening Results, P. aeruginosa (increase in extracellular AK activity)), 0.8. Further, the fold induction at 50 µM in the assay with E. faecium (planktonic E. faecium, […], read-out: AK-based Prestwick Library Screening Results, E. faecium (increase in extracellular AK activity)) was determined as 0.9.

As to `NC(CO)C(=O)NNCc1ccc(O)c(O)c1O` (stereo not drawn) [Benserazide hydrochloride], the fold induction at 50 µM was found to be 1.8 with E. cloacae (setting [4]); 1.3 in the assay on E. coli (setting [10]); 1.4 in assay [1] (setting [5]); 1 in assay [2] (setting [6]); 1.2 in the assay on K. pneumoniae (setting [7]); 1.1 with P. aeruginosa (setting [8]). Moreover, the fold induction at 50 µM with E. faecium (setting [9]) came out at 0.9.

In the case of `N#Cc1ccc(C(c2ccc(C#N)cc2)n2cncn2)cc1` [Letrozole], the fold induction at 50 µM with E. cloacae (planktonic E. cloacae, positive cutoff 3-fold increase, read-out: AK-based Prestwick library screening result, E. cloacae (fold increase in extracellular AK activity)) was found to be 1.4; in the assay on E. coli (planktonic E. coli, positive cutoff 3-fold increase, read-out: AK-based Prestwick library screening result, E. coli (fold increase in extracellular AK activity)), 1.2; in assay [1] (planktonic S. aureus, positive cutoff 3-fold increase, read-out: AK-based Prestwick library screening result, S. aureus (fold increase in extracellular AK activity)), 1.2; in assay [2] (planktonic A. baumannii, positive cutoff 3-fold increase, read-out: AK-based Prestwick library screening result, A. baumannii (fold increase in extracellular AK activity)), 1.3; in the assay with K. pneumoniae (planktonic K. pneumoniae, positive cutoff 3-fold increase, read-out: AK-based Prestwick library screening result, K. pneumoniae (fold increase in extracellular AK activity)) it was 1.1; with P. aeruginosa (planktonic P. aeruginosa, positive cutoff 3-fold increase, read-out: AK-based Prestwick library screening result, P. aeruginosa (fold increase in extracellular AK activity)) it was 1. Moreover, the fold induction at 50 µM with E. faecium (planktonic E. faecium, positive cutoff 3-fold increase, read-out: AK-based Prestwick library screening result, E. faecium (fold increase in extracellular AK activity)) stood at 1.

Regarding `CC(CN1c2ccccc2Sc2ccccc21)N(C)C` (stereo not drawn) [Promethazine hydrochloride], the fold induction at 50 µM came out at 0.5 with E. cloacae (planktonic, cutoff for positive-scoring molecules 3-fold increase, read-out: AK-based Prestwick Library Screening Results, E. cloacae (fold increase in extracellular AK activity)); 0.6 in the assay on E. coli (planktonic, cutoff for positive-scoring molecules 3-fold increase, read-out: AK-based Prestwick Library Screening Results, E. coli (fold increase in extracellular AK activity)); 0.5 in assay [1] (planktonic, cutoff for positive-scoring molecules 3-fold increase, read-out: AK-based Prestwick Library Screening Results, S. aureus (fold increase in extracellular AK activity)); 0.6 in assay [2] (planktonic, cutoff for positive-scoring molecules 3-fold increase, read-out: AK-based Prestwick Library Screening Results, A. baumannii (fold increase in extracellular AK activity)); 0.5 with K. pneumoniae (planktonic, cutoff for positive-scoring molecules 3-fold increase, read-out: AK-based Prestwick Library Screening Results, K. pneumoniae (fold increase in extracellular AK activity)); 0.6 in the assay with P. aeruginosa (planktonic, cutoff for positive-scoring molecules 3-fold increase, read-out: AK-based Prestwick Library Screening Results, P. aeruginosa (fold increase in extracellular AK activity)). Besides, the fold induction at 50 µM with E. faecium (planktonic, cutoff for positive-scoring molecules 3-fold increase, read-out: AK-based Prestwick Library Screening Results, E. faecium (fold increase in extracellular AK activity)) was determined as 0.8.

With `C[C@@H]1[C@H](O)[C@@H](C)/C=C/C=C/CC/C=C/C=C/C=C/C=C/C(O[C@H]2O[C@H](C)[C@@H](O)[C@H](N)[C@@H]2O)CC2O[C@](O)(CC(O)C(O)CCC(O)CC(O)CC(O)CC(=O)O[C@H]1C)CC(O)C2C(=O)O` (stereo partly drawn) [Nystatine], the “AK-based Prestwick Library Screening Results, E. cloacae (increase in extracellular AK activity)” value in the assay with E. cloacae (planktonic E. cloacae, […]) worked out at 1.4. For the same molecule, the “AK-based Prestwick Library Screening Results, E. coli (increase in extracellular AK activity)” value in the assay with E. coli (planktonic E. coli, […]) is given as 1.0. Besides, in assay [1] (planktonic S. aureus, […]), the “AK-based Prestwick Library Screening Results, S. aureus (increase in extracellular AK activity)” value was 0.7. In assay [2] (planktonic A. baumannii, […]), the “AK-based Prestwick Library Screening Results, A. baumannii (increase in extracellular AK activity)” value is reported as 0.9. Also, the “AK-based Prestwick Library Screening Results, K. pneumoniae (increase in extracellular AK activity)” value in the assay with K. pneumoniae (planktonic K. pneumoniae, […]) was determined as 0.8. For the same molecule, in the assay on P. aeruginosa (planktonic P. aeruginosa, […]), the “AK-based Prestwick Library Screening Results, P. aeruginosa (increase in extracellular AK activity)” value worked out at 0.8. Further, in the assay with E. faecium (planktonic E. faecium, […]), the “AK-based Prestwick Library Screening Results, E. faecium (increase in extracellular AK activity)” value was 0.8.
